Test results: ChEMBL document CHEMBL5550203, “A Comprehensive In Vitro Characterization of a New Class of Indole-Based Compounds Developed as Selective Haspin Inhibitors” (J Med Chem, 2024)

Columns and labels:
[1] = human, plasma, 2 h, 10 µM
Description: Stability in human plasma at 10 uM measured upto 120 mins by LC-MS analysis

[2] = rat, plasma, 2 h, 10 µM
Description: Stability in rat plasma at 10 uM measured upto 120 mins by LC-MS analysis

[3] = human, microsomes, 1 h
[4] = physchem; settings: simulated gastric fluid
Description: Chemical stability in stimulated gastric fluid assessed as compound remaining at 10 uM measured upto 120 mins by LC-MS analysis

[5] = physchem; settings: simulated intestinal fluid
Description: Chemical stability in stimulated intestinal fluid assessed as compound remaining at 10 uM measured upto 120 mins by LC-MS analysis

Stability [1]: Stable
Stability [2]: Stable
Stability [3]: Stable
remaining at 2 h, 10 µM [4]: > 80%
remaining at 2 h, 10 µM [5]: > 80%
SMILES: Cc1ccc(NC(=O)c2ccc3c(c2)c(CNCCN2CCNCC2)cn3C)cc1C
